In PMC10051608, “Multi-Compartmental Dissolution Method, an Efficient Tool for the Development of Enhanced Bioavailability Formulations Containing Poorly Soluble Acidic Drugs” (Pharmaceutics, 2023):
Converted amounts (≈) assume the structure as drawn.

Experiments:
[1] = pH-dependent equilibrium solubility, saturation shake-flask method in Britton-Robinson buffers and 1 M NaOH; type: physicochemical; conditions: 37 °C; for solubility thermodynamic at 6 h: aqueous buffer, thermodynamic from solid, mean of 3, read-out: SpH ± SD
Method: The saturation shake–flask method was used to determine the equilibrium solubility of the API [34, 35]. The measurements were carried out at 37 ± 0.1 °C. […] In case it was necessary, the pH was adjusted to the initial value with 1M NaOH solution after 1 h. The flasks were then placed in a GFL 1092 type shaking water bath (GFL GmbH, Burgwedel, Germany) and shaken at 150 rpm for 6 h. The agitation phase was followed by 18 h sedimentation at controlled temperature. A total of 3 aliquot (10–100 µL) samples were then taken from the saturated solution and diluted to the required extent (2–250x) with the tested medium. The concentration was measured by UV spectroscopy at λmax: 264 nm. […] In each medium, the solubility experiments were performed in triplicate.

[2] = literature data measured at 25 °C; cited from earlier work
[3] = Equilibrium solubility in biorelevant media, saturation shake-flask method; type: physicochemical; conditions: for solubility thermodynamic at 6 h: thermodynamic from solid, read-out: SpH ± SD; for increase in solubility: biorelevant media
Method: The saturation shake–flask method was used to determine the equilibrium solubility of the API [34, 35]. The measurements were carried out at 37 ± 0.1 °C. […] In case it was necessary, the pH was adjusted to the initial value with 1M NaOH solution after 1 h. The flasks were then placed in a GFL 1092 type shaking water bath (GFL GmbH, Burgwedel, Germany) and shaken at 150 rpm for 6 h. The agitation phase was followed by 18 h sedimentation at controlled temperature. A total of 3 aliquot (10–100 µL) samples were then taken from the saturated solution and diluted to the required extent (2–250x) with the tested medium. The concentration was measured by UV spectroscopy at λmax: 264 nm. […] In each medium, the solubility experiments were performed in triplicate. […] The equilibrium solubility was also investigated in biorelevant media modelling gastric and small intestinal fluid in a fasted and fed state with and without solubilizing agents (pepsin or lecithin and bile acid salts). The tested biorelevant media were Blank FaSSGF, FaSSGF, Blank FaSSIF, FaSSIF, FeSSGF-acetate (without milk), Blank FeSSIF, and FeSSIF.

solubility thermodynamic at 6 h ([1]; BR (Britton-Robinson) buffer, pH 1.92 (nominal pH 2.0) BR buffer): 70.8 ± 3 µg/mL (≈ 0.343 mM) | solubility thermodynamic at 6 h ([1]; BR (Britton-Robinson) buffer, pH 3.96 BR buffer): 124 ± 13 µg/mL (≈ 0.601 mM) | solubility thermodynamic at 6 h ([1]; BR (Britton-Robinson) buffer, pH 5.95 BR buffer): 1910 ± 70 µg/mL (≈ 9.26 mM) | solubility thermodynamic at 6 h ([1]; BR (Britton-Robinson) buffer, pH 7.17 BR buffer): 32000 µg/mL (≈ 155 mM) | solubility thermodynamic at 6 h ([1]; BR (Britton-Robinson) buffer, pH 8.02 BR buffer): 300000 µg/mL (≈ 1450 mM) | solubility thermodynamic at 6 h ([1]; pH 14, 1 M NaOH): 734000 µg/mL (≈ 3560 mM) | logSpH ([1]; pH 1.92 (nominal pH 2.0) BR buffer): −3.46 mol/L | logSpH ([1]; pH 3.96 BR buffer): −3.22 mol/L | logSpH ([1]; pH 5.95 BR buffer): −2.03 mol/L | logSpH ([1]; pH 7.17 BR buffer): −0.81 mol/L | logSpH ([1]; pH 8.02 BR buffer): 0.16 mol/L | logSpH ([1]; pH 14, 1 M NaOH): 0.55 mol/L | solubility thermodynamic at 6 h ([3]; FeSSGF-acetate (without milk), fassgf or other biorelevant, FeSSGF-acetate, pH 4.5, 37 °C): 194 ± 2 µg/mL (≈ 0.94 mM) | increase in solubility ([3]; changing the pH from 1.6 to 4.5): 3.4 fold | increase in solubility ([3]; changing the pH from 1.6 to 5.0): 7.4 fold | increase in solubility ([3]; changing the pH from 1.6 to 6.5): 44.6 fold | solubility thermodynamic at 6 h ([3]; fassgf or other biorelevant, FeSSIF blank, pH 5.0, 37 °C): 416 ± 12 µg/mL (≈ 2.02 mM) | effect of pepsin on solubility ([3]; gastric pH): no effect | solubility thermodynamic at 6 h ([3]; FaSSIF, pH 6.5, 37 °C): 3160 ± 31 µg/mL (≈ 15.3 mM) | solubility thermodynamic at 6 h ([3]; FeSSIF, pH 5.0, 37 °C): 2100 ± 56 µg/mL (≈ 10.2 mM)
SMILES: CC(C)Cc1ccc(C(C)C(=O)O)cc1 (stereo not drawn) [ibuprofen]
intrinsic solubility logS0 [2]: −3.62
